ChEMBL document CHEMBL3352793, “Discovery of pyrrolo-benzo-1,4-diazines as potent Na(v)1.7 sodium channel blockers” (Bioorg Med Chem Lett, 2014)

Assays:
[1] = in vivo; settings: rat, po, 10 mg/kg
[2] = species on record: Rattus norvegicus; settings: in vivo, po, 10 mg/kg, 6 h
[3] = Cmax in rat at 10 mg/kg, po; assay type: ADME, organism-based; set-up: dose 10 mg/kg, route oral; settings: in vivo
[4] = Tmax in rat at 10 mg/kg, po; assay type: ADME, organism-based; set-up: dose 10 mg/kg, route oral; settings: in vivo
[5] = Terminal half life in rat at 3 mg/kg, iv; assay type: ADME, organism-based; set-up: dose 3 mg/kg, route intravenous; settings: in vivo, read-out: beta t1/2 (converted)
[6] = Clearance in rat at 3 mg/kg, iv; assay type: ADME, organism-based; set-up: dose 3 mg/kg, route intravenous; settings: in vivo
[7] = Mean residence time in rat at 10 mg/kg, po; assay type: ADME, organism-based; set-up: dose 10 mg/kg, route oral; settings: in vivo
[8] = AUC (0 to 24 hrs) in rat at 10 mg/kg, po; assay type: ADME, organism-based; set-up: time < 24 hr, dose 10 mg/kg, route oral; settings: plasma
[9] = AUC (0 to 24 hrs) in rat at 3 mg/kg, iv; assay type: ADME, organism-based; set-up: time < 24 hr, dose 3 mg/kg, route intravenous; settings: plasma
[10] = Volume of distribution at steady state in rat at 3 mg/kg, iv; assay type: ADME, organism-based; set-up: dose 3 mg/kg, route intravenous; settings: in vivo, read-out: Vdss
[11] = Mean residence time in rat at 3 mg/kg, iv; assay type: ADME, organism-based; set-up: dose 3 mg/kg, route intravenous; settings: in vivo
[12] = Oral bioavailability in rat at 10 mg/kg; assay type: ADME, organism-based; settings: in vivo
[13] = test system: Brain; experiment: Drug uptake in rat brain at 10 mg/kg, po; assay type: ADME, organism-based; set-up: dose 10 mg/kg, route oral; settings: in vivo

Compound	AUC(0-t) at 6 h ([1]; in vivo) [µM·h]	other results
CN(C)c1cccc(C(=O)N2CCC3(CC2)Nc2ccccc2-n2cccc23)c1	0.633	
COc1ccc2c(c1)NC1(CCN(C(=O)c3ccc(N(C)C)c(Cl)c3)CC1)c1cccn1-2	1.27	
COc1ccc2c(c1)NC1(CCN(Cc3ccccc3)CC1)c1cccn1-2	0.37	
COc1ccc2c(c1)NC1(CCN(C(=O)c3ccc(C#N)c(OC)c3)CC1)c1cccn1-2	26.6	
N#Cc1ccc(C(=O)N2CCC3(CC2)Nc2ccc(Br)cc2-n2cccc23)cc1	23.4	
COc1ccc2c(c1)NC1(CCN(C(=O)c3cc(C)cc(C)c3)CC1)c1cccn1-2	0.788	
Cc1cc(C)cc(C(=O)N2CCC3(CC2)Nc2ccccc2-n2cccc23)c1		AUC [2]: 0 nM·h
COc1ccc2c(c1)NC1(CCN(C(=O)OCc3ccccc3)CC1)c1cccn1-2	13.1	
COc1ccc2c(c1)NC1(CCN(C(=O)c3cccc(Cl)c3)CC1)c1cccn1-2		AUC [2]: 0 nM·h
COc1ccc2c(c1)NC1(CCN(C(=O)c3ccc(OC)c(Cl)c3)CC1)c1cccn1-2	6.81	
COc1ccc2c(c1)NC1(CCN(C(=O)c3ccc(Cl)cc3)CC1)c1cccn1-2	1.96	
COc1ccc2c(c1)NC1(CCN(C(=O)c3ccc(OC)c(N(C)C)c3)CC1)c1cccn1-2		Cmax [3]: 9.3 µM; Tmax [4]: 1.3 h; half-life [5]: 174 min; clearance [6]: 6.5 mL/min/kg; MRT [7]: 4.7 h; AUC(0-t) at 24 h [8]: 65.9 µM·h; AUC(0-t) at 24 h [9]: 17.4 µM·h; Vd [10]: 1.2 L/kg; AUC(0-t) at 6 h ([1]; plasma): 20.3 µM·h; MRT [11]: 3 h; bioavailability [12]: 100%; Drug uptake [13]: 257 ng/g
N#Cc1ccc(C(=O)N2CCC3(CC2)Nc2cc(Cl)ccc2-n2cccc23)cc1	2.9	
N#Cc1ccc(C(=O)N2CCC3(CC2)Nc2ccc(Cl)cc2-n2cccc23)cc1	26.1	
N#Cc1ccc(C(=O)N2CCC3(CC2)Nc2cc(C(F)(F)F)ccc2-n2cccc23)cc1	15.2	
COc1ccc2c(c1)NC1(CCN(C(=O)c3ccc(N(C)C)cc3)CC1)c1cccn1-2	9.44	
COc1ccc2c(c1)NC1(CCN(C(=O)c3ccc(C)cc3)CC1)c1cccn1-2	17.2	
N#Cc1ccc(C(=O)N2CCC3(CC2)Nc2cc(OC(F)(F)F)ccc2-n2cccc23)cc1	11.7	
COc1cccc(C(=O)N2CCC3(CC2)Nc2cc(OC)ccc2-n2cccc23)c1		AUC [2]: 0 nM·h
N#Cc1ccc(C(=O)N2CCC3(CC2)Nc2ccc(F)cc2-n2cccc23)cc1	12	
COc1ccc2c(c1)NC1(CCN(C(=O)c3cccc(C#N)c3)CC1)c1cccn1-2	0.783	
COc1ccc2c(c1)NC1(CCN(C(=O)c3cccc(C)c3)CC1)c1cccn1-2		AUC [2]: 0 nM·h
COc1ccc2c(c1)NC1(CCN(C(=O)c3ccccc3OC)CC1)c1cccn1-2		AUC [2]: 0 nM·h
COc1ccc2c(c1)NC1(CCN(C(=O)c3ccc(C#N)cc3)CC1)c1cccn1-2	51.1	
N#Cc1ccc(C(=O)N2CCC3(CC2)Nc2ccccc2-n2cccc23)cc1	1.01	
COc1ccc(C(=O)N2CCC3(CC2)Nc2cc(OC)ccc2-n2cccc23)cc1	91.5	
